# Data: patent US20180117249A1, “Warburg Effect Targeted Chemotherapy Apparatus” (Cure Cancer Worldwide LLC, priority 2010, published 2018)
# Assays:
# [1] = test system: MDA-MB-231 breast cancer cells; conditions: cells incubated with insulin; cited from earlier work
# [2] = Insulin-induced hypoglycemia safety profile (Xi'an, China); assay type: in vivo, patients
# From the text: Cure Cancer Worldwide in conjunction with several hospitals in China have been treating patients using a combination of insulin induced hypoglycemia in combination with standard chemotherapy treatments, generally given multiple times in a 3 week window but at 10% the standard dose. The safety of these treatments has been evaluated as well as the side effects.
# [3] = Hypoglycemic glucose clamp in SCID mouse xenograft model; assay type: in vivo
# Experimental: The glucose clamp technique has been well developed in animals models for the purpose diabetes research. (Ayala, et al., 2011) We have adapted this technique for use in a SCID mouse xenograft model. FIG. 3 gives a schematic of this procedure. Briefly, mice are injected subcutaneously in the hind flank with a standard amount of cancer cells sufficient to cause a tumor to grow. After a few weeks when tumor volume measures around 300-500 mm3, mice undergo jugular vein cannulation. Mice are fasted for 5 hours prior to treatment with chemotherapy drugs. Depending on the pharmacokinetics of the drug, drugs are either given before the start of the glucose clamp or during the clamp procedure to correspond to the maximum effectiveness of the drug during the “hypoglycemia therapeutic window”. Injection pumps containing insulin, glucose and washed erythrocytes from donor mouse blood are connected to a swivel mixer which is in turn connected to the jugular catheters. For the initiation of the hypoglycemic clump, a bolus injection of insulin is given to reduce initial blood glucose levels which typically take around 30 minutes to lower blood glucose. Then a steady state of insulin and glucose is given to maintain blood glucose levels between 30-50 mg/dL for two hours. In practice, blood glucose levels range from 22-51 mg/dl with an average around 34 mg/dL (1.9 mmol/L). […]
# [4] = test system: human esophageal and colonic cancer cells; conditions: cited from earlier work
# breast cancer cells [5] = conditions: cells incubated with insulin; cited from earlier work
# breast cancer cells [6] = conditions: asynchronous population; 37% in controls; cited from earlier work
# [7] = test system: breast cancer cells in culture; conditions: methotrexate with insulin vs methotrexate alone; cited from earlier work
# breast cancer = conditions: diabetic women taking metformin; diabetic control 8%, non-diabetic control 16%; cited from earlier work
# [8] = cited from earlier work
# [9] = insulin several hours before 5-FU vs 5-FU without insulin
compound,measurement,setting,value
insulin,increase in the uptake of elipticine,[1],2 fold
same,Comas,[2]; 950 insulin injections,0 n
same,Deaths,[2]; 950 insulin injections,0 n
same,Time Interval of Hypoglycemia,[2]; 950 insulin injections,5-25 m
same,Hypoglycemia range,"[2]; insulin induced hypoglycemia with chemotherapy at 10% standard dose, initial blood glucose 3.86-7.95 mmol/l, 950 insulin injections",1.0 to 3.4 mmol/L
same,Conclusion,[2]; insulin-induced hypoglycemia safety profile,safe
same,time to lower blood glucose,[3]; bolus injection of insulin at initiation of clamp,around 30 minutes
same,"blood glucose levels, range in practice","[3]; steady state of insulin and glucose for two hours, target 30-50 mg/dL",22 to 51 mg/dL
same,apoptotic cell populations,[4]; [9],higher percentage of apoptotic cell populations
same,inhibition of cell growth,[4]; [9],greater inhibition of cell growth
same,percent of S-phase cells,[4]; treatment of insulin,increase in the percent of S-phase cells
same,stimulation of uptake of methotrexate,breast cancer cells [5],50%
same,S-phase fraction,breast cancer cells [6],66%
CN(Cc1cnc2nc(N)nc(N)c2n1)c1ccc(C(=O)N[C@@H](CCC(=O)O)C(=O)O)cc1 [methotrexate],lowering of methotrexate concentration for same percent cell killing,[7],10000 fold
CN(C)C(=N)N=C(N)N [metformin],pathological complete response (pCR) rate,breast cancer,24%
"O=CC[C@@H](O)[C@H](O)[C@H](O)CO [2DG, 2-deoxyglucose]",ECG effect,"[8]; Raez, et al., 2013",irregular Electrocardiograph (ECG) heart rhythms
same,main failure point in the clinic,[8]; clinical trials,induced hyperglycemia
